# Test results published in ChEMBL document CHEMBL1201862, “PubChem BioAssay data set” (2004).
# The source made the active and inactive calls. Unless noted, the calls are words filed in the database; no cut-off is given here.
# Assays:
# [1] = inhibitors of fibronectin matrix deposition, dose response, AH1F cells, Alexa488-FN fluorescence, cherry-picks (AID 1035475); type: functional, cell-based
# Caspase-6 = biological target: T1, Caspase-6 (Homo sapiens, UniProt P55212); experiment: human caspase-6 inhibitors, dose response, biochemical, VEID-R110 fluorescence, dry powder retest (AID 743332)
# T1 sequence (P55212 whole entry): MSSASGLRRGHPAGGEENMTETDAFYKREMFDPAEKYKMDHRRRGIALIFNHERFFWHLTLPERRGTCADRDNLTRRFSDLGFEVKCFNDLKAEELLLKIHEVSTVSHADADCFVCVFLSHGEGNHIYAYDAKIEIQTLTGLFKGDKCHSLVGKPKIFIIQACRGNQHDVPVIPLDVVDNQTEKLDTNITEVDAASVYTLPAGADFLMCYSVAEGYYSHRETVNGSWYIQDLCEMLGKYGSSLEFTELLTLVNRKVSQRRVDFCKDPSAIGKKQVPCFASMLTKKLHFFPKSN
# [2] = Keap1-Nrf2 protein-protein interaction inhibitors, dose response, biochemical, fluorescence polarization, dry powder, set 2 (AID 651801)
# [3] = Keap1-Nrf2 protein-protein interaction inhibitors, dose response, biochemical, fluorescence polarization, dry powder samples (AID 651798)
# [4] = biological target: Potassium channel subfamily K member 9 (Homo sapiens, UniProt Q9NPC2); experiment: TASK3 (KCNK9) channel inhibitors, thallium flux, SAR follow-up, selectivity assay for TASK1 inhibitor project, cell-based, FluxOR thallium flux, concentration-response (AID 652211); type: functional;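 further: potency is for inhibitors of the channel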
# [5] = biological target: Potassium channel subfamily K member 3 (Homo sapiens, UniProt O14649); experiment: TASK1 (KCNK3) potassium channel inhibitors, SAR follow-up, CHO cells, FluxOR thallium flux (AID 652212); type: functional
# [6] = Cytotoxicity screening for potential Inhibitors of Bacterial Capsule Biogenesis (4).; type: functional
# [7] = Keap1 Kelch-Nrf2 peptide binding inhibitors, dose response, biochemical, fluorescence polarization, dry powder, set 3 (AID 651806)
# [8] = biological target: Kappa-type opioid receptor (Homo sapiens, UniProt P41145); experiment: Late-stage fluorescence-based cell-based dose response assay for antagonists of kappa opioid receptor 1 (OPRK1).; type: functional
# Mu-type opioid receptor = Mu-type opioid receptor (Homo sapiens, UniProt P35372); experiment: Late-stage results from the probe development effort to identify antagonists of OPRK1: luminescence-based cell-based dose response OPRM1 counterscreen, Set 2.; type: functional
# [9] = biological target: Delta-type opioid receptor (Homo sapiens, UniProt P41143); experiment: Late-stage results from the probe development effort to identify antagonists of OPRK1: fluorescence-based cell-based dose response OPRD1 counterscreen, Set 2.; type: functional
# [10] = biological target: Sphingosine 1-phosphate receptor 1 (Homo sapiens, UniProt P21453); experiment: Late-stage counterscreen for antagonists of kappa opioid receptor 1 (OPRK1): fluorescence-based cell-based dose response assay to identify antagonists of Sphingosine 1-Phosphate Receptor 1 (S1P1).; type: functional
# [11] = biological target: Metabotropic glutamate receptor 3 (Rattus norvegicus, UniProt P31422); experiment: mGlu3 negative allosteric modulator potency, dose response, HEK/GIRK cells, thallium flux, rat (AID 651839); type: functional
# [12] = Late stage assay provider results from the probe development effort to identify inhibitors of the Plasmodium falciparum M18 Aspartyl Aminopeptidase (M18AAP): radiolabel-based cell-based dose response assay to identify compounds that inhibit P. falciparum growth in RBCs, Set 2..; type: functional
# [13] = CEM21 cell cytotoxicity, dose response, cytotoxicity control, plate reader, dry powder (AID 687026); type: functional, cell-based
# [14] = inhibitors of non-replicating M. tuberculosis, dose response, luciferase, dry powder (AID 651619); type: functional; settings: Mycobacterium tuberculosis
# [15] = inhibitors of non-replicating M. tuberculosis, dose response, luciferase, dry powder (AID 651620); type: functional; settings: Mycobacterium tuberculosis
# [16] = growth inhibition of replicating M. tuberculosis, dose response, counter-screen, dry powder, IC90 (AID 651617); type: functional; settings: Mycobacterium tuberculosis
# [17] = A549 cell cytotoxicity, dose response, cytotoxicity control, plate reader, cherry-pick, antagonist series (AID 743412); type: functional, cell-based
# [18] = LGR2 antagonists, dose response, cell-based, HEK293, CRE-luciferase reporter, cherry pick (AID 743342); type: functional
# [19] = YAP1 pathway inhibition via CTGF transcript levels, dose response, cell-based, DLD1 colon cancer, RT-qPCR, cherry-pick (AID 1053122); type: functional; settings: Cancer cell lines
# Chain of Sphingosine 1-phosphate receptor 1 (P21453 whole entry): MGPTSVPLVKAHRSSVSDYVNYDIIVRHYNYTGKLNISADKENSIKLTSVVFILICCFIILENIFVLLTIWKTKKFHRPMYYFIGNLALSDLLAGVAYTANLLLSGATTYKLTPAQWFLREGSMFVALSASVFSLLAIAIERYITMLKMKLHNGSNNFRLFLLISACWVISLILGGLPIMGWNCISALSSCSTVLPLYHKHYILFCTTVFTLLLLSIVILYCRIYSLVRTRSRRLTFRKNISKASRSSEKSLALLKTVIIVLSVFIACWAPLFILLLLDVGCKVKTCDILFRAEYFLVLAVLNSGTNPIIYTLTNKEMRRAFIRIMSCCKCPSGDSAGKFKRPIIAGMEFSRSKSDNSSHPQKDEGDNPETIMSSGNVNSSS
# Chain of Kappa-type opioid receptor (P41145 whole entry): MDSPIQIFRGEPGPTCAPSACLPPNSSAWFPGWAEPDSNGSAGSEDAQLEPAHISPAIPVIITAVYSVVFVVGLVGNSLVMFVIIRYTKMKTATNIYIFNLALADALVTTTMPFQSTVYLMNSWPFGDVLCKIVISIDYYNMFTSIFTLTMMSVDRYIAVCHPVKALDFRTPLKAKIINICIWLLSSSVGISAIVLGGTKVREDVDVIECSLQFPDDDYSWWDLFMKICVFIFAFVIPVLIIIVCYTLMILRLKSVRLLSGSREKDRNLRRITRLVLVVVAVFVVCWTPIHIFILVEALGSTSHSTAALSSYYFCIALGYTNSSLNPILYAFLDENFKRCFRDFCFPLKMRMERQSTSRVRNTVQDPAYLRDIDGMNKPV
# Chain of Delta-type opioid receptor (P41143 whole entry): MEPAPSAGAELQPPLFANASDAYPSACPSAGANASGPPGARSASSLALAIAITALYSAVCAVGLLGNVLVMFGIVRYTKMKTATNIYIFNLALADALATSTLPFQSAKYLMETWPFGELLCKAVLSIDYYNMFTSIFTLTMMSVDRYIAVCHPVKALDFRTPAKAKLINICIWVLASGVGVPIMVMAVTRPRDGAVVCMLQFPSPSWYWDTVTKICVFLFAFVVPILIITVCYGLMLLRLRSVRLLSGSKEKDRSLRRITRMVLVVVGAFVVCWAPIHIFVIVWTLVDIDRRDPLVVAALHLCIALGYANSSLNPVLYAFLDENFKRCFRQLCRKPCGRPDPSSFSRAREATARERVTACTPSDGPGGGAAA
# Chain of Metabotropic glutamate receptor 3 (P31422 whole entry): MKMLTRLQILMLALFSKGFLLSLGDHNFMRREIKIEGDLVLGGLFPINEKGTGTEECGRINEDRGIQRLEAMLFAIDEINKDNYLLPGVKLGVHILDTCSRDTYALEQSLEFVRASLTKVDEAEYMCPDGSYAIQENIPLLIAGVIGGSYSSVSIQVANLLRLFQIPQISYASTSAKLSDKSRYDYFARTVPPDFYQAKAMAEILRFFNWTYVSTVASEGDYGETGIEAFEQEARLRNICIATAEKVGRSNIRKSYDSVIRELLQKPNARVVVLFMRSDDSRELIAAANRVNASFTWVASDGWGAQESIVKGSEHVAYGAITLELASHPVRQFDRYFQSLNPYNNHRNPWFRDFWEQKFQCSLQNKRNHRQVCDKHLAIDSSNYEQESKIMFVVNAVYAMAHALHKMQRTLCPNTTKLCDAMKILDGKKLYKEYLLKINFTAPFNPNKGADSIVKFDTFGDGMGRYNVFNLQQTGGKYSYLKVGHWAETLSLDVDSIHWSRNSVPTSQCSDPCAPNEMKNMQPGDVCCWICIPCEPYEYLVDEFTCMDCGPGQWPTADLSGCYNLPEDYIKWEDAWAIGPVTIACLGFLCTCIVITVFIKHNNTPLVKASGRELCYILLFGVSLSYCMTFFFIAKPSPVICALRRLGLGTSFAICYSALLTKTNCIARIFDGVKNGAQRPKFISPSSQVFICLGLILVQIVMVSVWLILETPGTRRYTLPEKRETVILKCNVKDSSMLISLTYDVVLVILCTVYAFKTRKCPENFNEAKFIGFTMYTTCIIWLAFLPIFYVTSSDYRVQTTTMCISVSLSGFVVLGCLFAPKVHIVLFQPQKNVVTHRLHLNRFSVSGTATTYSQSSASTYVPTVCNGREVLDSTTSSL
# Chain of Mu-type opioid receptor (P35372 whole entry): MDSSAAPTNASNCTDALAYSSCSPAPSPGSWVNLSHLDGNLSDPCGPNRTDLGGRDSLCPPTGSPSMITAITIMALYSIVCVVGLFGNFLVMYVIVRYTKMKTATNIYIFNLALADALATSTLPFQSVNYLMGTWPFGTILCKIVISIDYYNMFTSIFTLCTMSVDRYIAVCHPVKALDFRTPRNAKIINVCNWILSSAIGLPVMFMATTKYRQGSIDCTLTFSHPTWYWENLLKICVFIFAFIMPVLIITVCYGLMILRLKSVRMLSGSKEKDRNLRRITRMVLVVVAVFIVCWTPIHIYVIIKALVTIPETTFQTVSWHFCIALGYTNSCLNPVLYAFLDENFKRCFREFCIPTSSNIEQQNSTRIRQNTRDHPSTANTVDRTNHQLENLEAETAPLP
# Chain of Potassium channel subfamily K member 9 (Q9NPC2 whole entry): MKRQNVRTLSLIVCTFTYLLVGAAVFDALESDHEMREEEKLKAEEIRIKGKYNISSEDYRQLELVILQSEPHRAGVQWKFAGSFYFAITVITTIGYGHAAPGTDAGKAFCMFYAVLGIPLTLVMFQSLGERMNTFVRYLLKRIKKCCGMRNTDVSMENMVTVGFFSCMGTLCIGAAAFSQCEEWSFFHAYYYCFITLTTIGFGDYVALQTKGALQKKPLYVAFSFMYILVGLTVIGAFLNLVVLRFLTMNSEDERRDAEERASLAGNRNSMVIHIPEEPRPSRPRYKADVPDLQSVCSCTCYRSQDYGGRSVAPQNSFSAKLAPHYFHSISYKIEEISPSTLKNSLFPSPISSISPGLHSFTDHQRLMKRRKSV
# Chain of Potassium channel subfamily K member 3 (O14649 whole entry): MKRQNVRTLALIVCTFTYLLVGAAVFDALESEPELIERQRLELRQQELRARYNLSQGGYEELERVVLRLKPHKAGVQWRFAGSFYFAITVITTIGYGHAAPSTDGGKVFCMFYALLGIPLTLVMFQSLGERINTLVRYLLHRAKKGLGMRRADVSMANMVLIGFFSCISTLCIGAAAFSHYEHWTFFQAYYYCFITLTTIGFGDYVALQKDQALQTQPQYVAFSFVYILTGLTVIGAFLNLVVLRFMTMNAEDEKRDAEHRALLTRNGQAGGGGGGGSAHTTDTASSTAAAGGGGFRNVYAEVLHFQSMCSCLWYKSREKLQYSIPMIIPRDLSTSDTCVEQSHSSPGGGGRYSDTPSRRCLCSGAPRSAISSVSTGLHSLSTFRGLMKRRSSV
structure (smiles),measurement,setting,value
N#Cc1ccc(-c2ccc3c(c2)[C@@H]2[C@@H](CCN2S(=O)(=O)c2ccccc2F)[C@H](CO)N3)cc1,AC50,[1],24.5 µM (active)
[O-][n+]1onc2c1CCc1c-2nn(-c2ccccc2)[n+]1[O-],AC50,Caspase-6,22.9 µM (active)
O=C(O)C1CCCCC1C(=O)N1CCc2ccccc2C1CN1C(=O)c2ccccc2S1(=O)=O (stereo unspecified),AC50,[2],78.9 µM (active)
same,AC50,[3],71.1 µM (active)
CCOc1ccccc1NC(=O)c1cccc(NC(=O)C2CCCCC2)c1,IC50,[4],1.3 µM (active)
same,IC50,[5],0.067 µM (active)
CC(C)(C)OC(=O)Nc1nc2ccc(C(=O)Nc3ccnc(F)c3)cc2s1,CC50,[6],> 300 µM (inactive)
O=C(O)[C@H]1CCCC[C@H]1C(=O)N1CCc2ccccc2[C@H]1CNS(=O)(=O)c1ccc([N+](=O)[O-])cc1,AC50,[7],88.3 µM (active)
COC(=O)c1cc(-c2ccc(OC)cc2)c(-c2ccc(OC)cc2)s1,IC50,[8],1.58 µM (active)
same,IC50,Mu-type opioid receptor,> 50 µM (inactive)
same,IC50,[9],19.8 µM (inactive)
same,IC50,[10],> 50 µM (inactive)
Cc1cc2cc(C#Cc3ccc(C(=O)N4CCCC(CO)C4)cc3)ccc2o1 (stereo unspecified),IC50,[11],3.91 µM
COc1cc(Br)c(CCNc2ccnc3ccccc23)cc1OC,IC50,[12],0.45 µM (active)
CCCOc1ccc(S(=O)(=O)NCc2ccncc2)c2ccccc12,AC50,[13],> 70 µM (inactive)
Fc1ccc(-c2nnc(SCc3ccccn3)o2)cc1,IC90,[14],4 µM (active)
same,IC90,[15],4 µM (active)
same,IC90,[16],62 µM (active)
C[C@H](CO)N1C[C@H](C)[C@H](CN(C)C(=O)Nc2ccc(F)cc2)OCCCC[C@H](C)Oc2ccc(NC(=O)Nc3ccc(F)cc3)cc2C1=O,AC50,[17],> 47 µM (inactive)
same,AC50,[18],16.1 µM (active)
COc1ccccc1NC(=O)N1CCCCN2[C@@H](CO)[C@H](c3ccc(-c4cccc(C#N)c4)cc3)[C@@H]2C1,AC50,[19],0.918 µM (active)
